Laboratory results taken from patent US20060046982A1, “Orthomolecular medical use of L-citrulline for capillary endothelial protection and adjacent cell protection in neurodegenerative disease” (priority 2004, published 2006).

Legend:
[1] = Case report: person taking L-citrulline capsules daily for 8 years; conditions: donor one; long-term L-citrulline intake
[2] = tested on: Human plasma Cohn fraction 1V-1 protein; assay: Turbidimetric test of protein insolubility induced by Fenton-like reaction (ferrous sulfate + H2O2), nephelometer; type: biochemical; conditions: amino acid at 400 microMol/L; 100 microMol/L ferrous sulfate + 40 microMol/L H2O2; pH 5.7-5.8; 37° Celsius, 30 minutes
Protocol: Human plasma Cohn fraction 1V-1 protein solutions (predominately alpha glycoglobulins, rich in lipid—obtained from Sigma Chemical Co.) of 40 mg/dl in saline solutions (140 NaCl mMol/L) were employed at existing pHs of 5.7-5.8 without additional confounding non-protein buffer. A nephelometer measured the intensity of reflected Tydall light. Developed turbidities were measured to quantify the insolubities of the dissolved proteins that were induced by introducing 100 microMol/L of ferrous sulfate and 40 microMol/L of H2O2 with incubations at 37° Celsius for 30 minutes. Insolubilities were standardized as the percent of maximal possible induced turbidities by comparison to similar protein solutions after mixing with the protein-precipitating agent sulfosalicylic acid at 1.5 g/dL.

For `NC(=O)NCCC[C@H](N)C(=O)O` [L-citrulline], the Fasting blood glucose [1] was “within the normal range”, the Hematocrit [1] was 38.5% and the blood hemoglobin [1] was 13.6 g/dL. The total leucocyte count [1] was 6.800 /mcL and the “mean inhibition of the insolubilities induced by the Fenton-like reactions” value (“mean inhibition” for short) [2] was “did not inhibit”.

With `NC(=O)CC[C@H](N)C(=O)O` [L-glutamine] the “mean inhibition” value [2] was “did not inhibit”.

In the case of `N[C@@H](Cc1c[nH]cn1)C(=O)O` [L-histidine free base, L-histidine], the “mean inhibition” value [2] is reported as 52.6%.
